Measured values taken from patent US9279807B2, “Materials and methods for the treatment of celiac disease” (ALBA THERAPEUTICS CORPORATION, priority 2006, dated 2016).
“Also recorded” adds a separate entry of the source. Residues, ends and D or L forms follow the SMILES beside them.

Columns and labels:
[1] = tested on: rats; experiment: Toxicity studies in rats; type: in vivo, rat
Description: Toxicity studies have been performed in rats and Beagle dogs. […] Any alterations in clinical chemistry, hematology, coagulation, urinalysis and organ weight data were considered coincidental based on absence of dose-response relationships and absence of histopathological changes.

[2] = tested on: Beagle dogs; experiment: Toxicity studies in Beagle dogs; type: in vivo, dog
Description: […] […] Any alterations in clinical pathology profiles were considered coincidental in nature. No alterations in absolute or relative organ weight data were detected.

[3] = target: T1, potassium selective IKr current (hERG) (Homo sapiens, UniProt Q12809); experiment: hERG test; type: cell-based; details: up to 1 ng/mL, stably transfected, normoxic conditions
T1 construct: expressed in transfected cells; host or cells: HEK 203 cells (so in the source)
T1 sequence (Q12809 whole entry): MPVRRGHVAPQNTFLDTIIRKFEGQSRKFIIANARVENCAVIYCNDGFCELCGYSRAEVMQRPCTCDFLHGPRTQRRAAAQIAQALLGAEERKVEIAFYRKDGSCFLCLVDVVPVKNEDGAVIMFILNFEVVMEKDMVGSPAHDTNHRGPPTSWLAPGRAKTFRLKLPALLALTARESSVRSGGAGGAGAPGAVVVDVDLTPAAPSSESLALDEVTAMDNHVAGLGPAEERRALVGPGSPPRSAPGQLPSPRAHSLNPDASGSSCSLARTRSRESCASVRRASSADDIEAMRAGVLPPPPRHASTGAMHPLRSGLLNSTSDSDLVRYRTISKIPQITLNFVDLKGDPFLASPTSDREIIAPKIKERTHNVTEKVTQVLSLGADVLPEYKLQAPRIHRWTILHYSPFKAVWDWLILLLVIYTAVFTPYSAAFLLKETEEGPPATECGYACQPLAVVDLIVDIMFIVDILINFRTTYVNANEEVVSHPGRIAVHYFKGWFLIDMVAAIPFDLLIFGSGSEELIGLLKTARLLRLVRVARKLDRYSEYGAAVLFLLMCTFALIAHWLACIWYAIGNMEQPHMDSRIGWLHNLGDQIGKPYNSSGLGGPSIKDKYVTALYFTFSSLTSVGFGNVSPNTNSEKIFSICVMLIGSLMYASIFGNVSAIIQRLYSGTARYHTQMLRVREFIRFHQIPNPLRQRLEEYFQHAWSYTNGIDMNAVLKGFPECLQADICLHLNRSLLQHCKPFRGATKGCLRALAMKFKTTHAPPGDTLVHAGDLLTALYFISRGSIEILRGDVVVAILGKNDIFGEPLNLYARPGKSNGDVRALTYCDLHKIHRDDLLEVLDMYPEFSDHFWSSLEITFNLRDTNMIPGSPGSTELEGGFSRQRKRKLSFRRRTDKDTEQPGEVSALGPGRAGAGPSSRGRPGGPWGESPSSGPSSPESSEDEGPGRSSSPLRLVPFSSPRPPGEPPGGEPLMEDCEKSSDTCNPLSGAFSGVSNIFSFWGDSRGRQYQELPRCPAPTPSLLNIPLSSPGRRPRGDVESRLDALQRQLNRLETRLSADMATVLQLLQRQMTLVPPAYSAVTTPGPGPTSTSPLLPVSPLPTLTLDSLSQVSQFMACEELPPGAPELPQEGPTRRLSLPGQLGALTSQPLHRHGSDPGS
Description: (§1) Two safety pharmacology studies for cardiotoxicity effects have been performed.

[4] = tested on: rabbits; experiment: Cardiovascular effects in unconscious female rabbits; type: in vivo, rabbit; details: intravenous, doses up to 1 mg/kg
Description: as §1

[5] = tested on: healthy adults; experiment: Single dose safety trial in healthy adults (CLIN1001-001); type: in vivo, human
Description: The single dose trial was a double-blind, placebo controlled, randomized trial of 24 healthy adults. […] All AEs reported in this study resolved without concomitant therapy. Headache was the most common AE experienced, reported one time each by 3 (13%) subjects.

[6] = tested on: healthy adults; experiment: Multi-dose safety trial in healthy adults (CLIN1001-003); type: in vivo, human; details: 24 healthy adults, 250 μg, 1, or 4 mg or placebo three times a day
Description: The multi-dose trial was a double-blind, placebo controlled, randomized trial of 24 healthy adults. […] Reported AEs were all mild and headache was the most common AE.

[7] = Plasma drug levels, multi-dose trial; type: in vivo, human; details: 3 times a day for 10 days; llq 0.5 ng/ml
[8] = Stability of drug substance; type: physicochemical; details: room temperature
[9] = Absorption and systemic toxicity in animals, FITC labeling; type: in vivo
[10] = tested on: CD subjects
Description: One cohort of 24 subjects was planned, with a 2:1 randomization (drug:placebo) for once daily dosing on Days 1, 2 and 3. On Day 2, all subjects would receive a 2.5 gram oral gluten challenge in single blind fashion.
Safety measures included monitoring of AEs, standard clinical panels for chemistry, hematology, and urinalysis, pregnancy screening, EKG, vital signs and physical exam findings.
Spontaneous adverse events collected throughout the study were categorized according to WHO adverse reaction terminology and evaluated for duration, intensity, and possible association with the study drug per ICH guidelines. In addition, the following procedures were performed at various points throughout the course of the study: vital signs, complete physical exams, 12-lead electrocardiograms, full clinical (safety) laboratory analyses, serum pregnancy, urine drug screen and HIV and hepatitis serologies.
All adverse events reported during the study were listed, documenting course, severity, and outcome and summarized by treatment, giving the number of subjects who experienced an adverse event, the maximum severity, and body system. GI adeverse events for each arm were tabulated by subject count and compared via Fisher's exact test.
EKG results were classified as normal and abnormal. PR, RR, QRS, QT, and QTc intervals will be carefully examined and abnormalities tabulated.

[11] = tested on: human peripheral lymphocytes; experiment: In vitro chromosome aberration study; details: up to 1200 μg, with and without metabolic activation
[12] = tested on: Salmonella and E. coli strains; experiment: Ames test (bacterial reverse mutation assay); details: up to 5000 μg per plate, with and without metabolic activation
[13] = tested on: Celiac Disease subjects; experiment: Phase IIa multiple dose POC study (CLIN1001-004), safety
Description: Study drug will be dispensed to subjects for fourteen (14) days of treatment. Study drug will be administered three times a day. […] Gluten or gluten placebo will be taken during each meal. Subjects will remain on their gluten-free diet throughout the duration of the trial.
All adverse events reported during the study will be listed, documenting course, severity, and outcome. Adverse events will be summarized by treatment, the MedDRA system organ class, and maximum severity. Laboratory parameters, vital signs, EKG assessments, and physical exam results will be summarized with descriptive statistics as appropriate.

[14] = oral once daily for 28 days up to 1000 mg/kg
[15] = dogs, up to 9 mg/kg daily for 4 weeks
[16] = 24 healthy adults, 3, 12, or 36 mg or placebo, single dose
[17] = CD subjects, 12 mg once daily Days 1-3, N = 14
[18] = Related = Possible, probably, definite combined causalities, 12 mg, N = 14
[19] = Phase IIa, preliminary observations

CC(C)C[C@H](NC(=O)[C@@H](NC(=O)CNC(=O)CN)C(C)C)C(=O)N[C@H](C(=O)N[C@@H](CCC(N)=O)C(=O)N1CCC[C@H]1C(=O)NCC(=O)O)C(C)C [AT-1001] (H-GGVLVQPG-OH)
Body weight gain in recovery group ([1]; 28 day study, males at week 8 (recovery week 4)): body weight gain was lower in the dose males at week 8 | Treatment-related findings, 14 day repeat-dose study ([1]; oral gavage once daily for 14 days up to 1000 mg/kg): no treatment-related clinical observations, clinical pathology changes, body weight or weight gain changes, organ weight changes, or gross or microscopic tissue changes | Food consumption, body weights/gains, ophthalmic observations [1, 14]: unaffected by treatment | Gross necropsy or histopathology findings [1, 14]: No gross necropsy or histopathology findings were considered to be treatment-related | Treatment-related deaths [1, 14]: No treatment-related deaths occurred | Clinical observations, clinical chemistry, gross postmortem observations ([1]; single dose intravenously up to 5 mg/kg): no clinical observations, clinical chemistry changes, or gross postmortem observations | Signs of toxicity ([2]; Beagle dogs, single dose up to 5 mg/kg intravenously, observed 14 days): no signs of toxicity were observed | Clinical signs of toxicity ([2]; dogs, enteric-coated beads 20 mg/kg day 1, 40 mg/kg day 2): no clinical signs of toxicity were noted | Total protein and globulin levels ([2]; dogs, enteric-coated beads 20 mg/kg day 1, 40 mg/kg day 2, 24 hr after 40 mg/kg): slightly elevated | Treatment-related deaths and appearance ([2]; dogs, enteric-coated beads orally up to 9 mg/kg daily for 4 weeks): No treatment-related deaths occurred and all dogs appeared normal | Body weights, body weight gains, ophthalmic observations and EKG readings [2, 15]: unaffected by treatment | Gross necropsy or histopathology findings [2, 15]: None of the gross necropsy or histopathology findings were considered to be treatment-related | Effect on IKr current [3]: None of the concentrations of AT-1001 caused statistically significant effects | Effects on the EKG [4]: no notable effects | Serious adverse events [5, 16]: No Serious Adverse Events (SAEs) | Severity of adverse events [5, 16]: mild or moderate in severity | Clinically significant trends (clinical laboratory, vital sign, EKG, physical examination) ([5]; single dose trial): No clinically significant treatment-related trends; also recorded: No Clinically Significant trends related to safety | Serious adverse events [6]: No Serious Adverse Events (SAEs) | Severity of adverse events [6]: all mild in severity | Plasma drug levels [7]: No measurable plasma drug levels | Stability [8]: up to 1 year | Passage into the submucosa or the vasculature ([9]; fluorescent FITC labeling): measurable amounts of the antagonist do not cross into the submucosa or the vasculature | Systemic toxicities ([9]; supra-therapeutic dosing in animals): devoid of significant systemic toxicities | Systemic absorption ([9]; supra-therapeutic dosing in animals, multi-particulate oral formulation): not systemically absorbed to any significant extent | solubility: > 1000 µg/mL | Overall safety and tolerability ([10]; 12 mg in CD subjects): generally safe, well tolerated | (%) of serious AEs ([10]; 12 mg, N = 14): (0) % | Number of serious AEs ([10]; 12 mg, N = 14): 0 | Gastrointestinal Disorders, Subject Count (%) ([10]; 12 mg, N = 14, p 0.018 vs placebo): 6 (43%) | Number of subjects reporting an AE ([10]; CD subjects, 12 mg once daily Days 1-3, 2.5 g gluten Day 2, N = 14): 10 | (%) of subjects discontinued study due to AE [10, 17]: (0) % | (%) of subjects reporting an AE [10, 17]: (71) % | Number of subjects discontinued study due to AE [10, 17]: 0 | Total number of AEs reported [10, 17]: 32 | Abdominal Discomfort, Subject Count (%) ([10]; CD-related, 12 mg, N = 14): 0 (0%) | Constipation, Subject Count (%) ([10]; CD-related, 12 mg, N = 14): 0 (0%) | Flatulence, Subject Count (%) ([10]; CD-related, 12 mg, N = 14): 2 (14%) | Vomiting, Subject Count (%) ([10]; CD-related, 12 mg, N = 14): 3 (21%) | Diarrhoea, Subject Count (%) ([10]; CD-related, 12 mg, N = 14, p 0.017 vs placebo): 2 (14%) | Abnormalities in safety laboratory tests, vital signs, ECG, physical examinations ([10]; Phase Ib study): no clinically significant abnormalities | Deaths, SAEs, significant AEs, withdrawals due to AEs ([10]; Phase Ib study, 21 CD subjects, 12 mg or placebo for three days): no serious adverse events (SAEs); also recorded: no deaths, SAEs, significant AEs, or withdrawals due to AEs | (%) of related AEs [10, 18]: (3) % | Number of related AEs [10, 18]: 1 | Dyspepsia, Subject Count (%) ([10]; not CD-related, 12 mg, N = 14): 3 (21%) | Eructation, Subject Count (%) ([10]; not CD-related, 12 mg, N = 14): 1 (7%) | Gastrooesophageal Reflux, Subject Count (%) ([10]; not CD-related, 12 mg, N = 14): 1 (7%) | Nausea, Subject Count (%) ([10]; not CD-related, 12 mg, N = 14): 4 (29%) | Stomach Discomfort, Subject Count (%) ([10]; not CD-related, 12 mg, N = 14): 2 (14%) | Structural or numerical chromosome aberrations [11]: negative for inducing structural or numerical chromosome aberrations | Mutagenic activity [12]: negative for mutagenic activity | Safety and tolerability of multiple oral doses ([13]; Phase IIa patient population): demonstrated | Serious adverse events ([13]; Phase IIa, 0.25-8 mg TID 14 days, preliminary observations): No Serious Adverse Events (SAEs) | Clinically significant trends related to safety [13, 19]: No Clinically Significant trends related to safety | Severity of adverse events [13, 19]: mild or moderate in severity
